The target of this assay is XPD (S. acidocaldarius) (Sulfolobus acidocaldarius, UniProt Q4JC68). As to conditions: ssDNA-stimulated; temperature and pH not stated here.

Structures are written as SMILES.

XPD (S. acidocaldarius), sequence (Q4JC68 whole entry): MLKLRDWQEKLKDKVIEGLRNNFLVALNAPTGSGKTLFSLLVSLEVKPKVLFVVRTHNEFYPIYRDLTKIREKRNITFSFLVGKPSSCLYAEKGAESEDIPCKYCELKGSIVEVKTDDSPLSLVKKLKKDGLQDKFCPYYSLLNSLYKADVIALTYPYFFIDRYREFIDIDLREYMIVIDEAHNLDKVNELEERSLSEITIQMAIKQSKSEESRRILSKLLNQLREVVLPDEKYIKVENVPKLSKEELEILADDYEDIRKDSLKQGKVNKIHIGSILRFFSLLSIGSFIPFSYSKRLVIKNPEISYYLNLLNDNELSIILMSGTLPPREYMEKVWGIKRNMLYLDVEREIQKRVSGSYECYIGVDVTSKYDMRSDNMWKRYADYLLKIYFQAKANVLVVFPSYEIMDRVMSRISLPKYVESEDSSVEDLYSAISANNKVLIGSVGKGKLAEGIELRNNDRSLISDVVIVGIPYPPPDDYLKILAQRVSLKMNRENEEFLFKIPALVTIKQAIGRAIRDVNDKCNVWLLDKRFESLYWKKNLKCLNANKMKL

As for `Nc1ncnc2c1ncn2[C@@H]1O[C@H](COP(=O)(O)OP(=O)(O)OP(=O)(O)O)[C@@H](O)[C@H]1O` [ATP], the ATPase rate result is “Plot of the ssDNA-stimulated ATPase activities of the indicated wild-type and mutant proteins”.

Values taken from article PMC3326533 (Cell, 2008).
